Experimental data: BindingDB's records for doi:10.1021/bi900258v (Pfizer, 2009)
pKi: −log10 of the molar value.

Assays:
[1] = biological target: T1, Serine/threonine-protein kinase Chk1 (Homo sapiens, UniProt O14757); assay: Surface Plasmon Resonance BindingAssay; details: pH 8; 20 °C
T1 sequence (O14757 whole entry): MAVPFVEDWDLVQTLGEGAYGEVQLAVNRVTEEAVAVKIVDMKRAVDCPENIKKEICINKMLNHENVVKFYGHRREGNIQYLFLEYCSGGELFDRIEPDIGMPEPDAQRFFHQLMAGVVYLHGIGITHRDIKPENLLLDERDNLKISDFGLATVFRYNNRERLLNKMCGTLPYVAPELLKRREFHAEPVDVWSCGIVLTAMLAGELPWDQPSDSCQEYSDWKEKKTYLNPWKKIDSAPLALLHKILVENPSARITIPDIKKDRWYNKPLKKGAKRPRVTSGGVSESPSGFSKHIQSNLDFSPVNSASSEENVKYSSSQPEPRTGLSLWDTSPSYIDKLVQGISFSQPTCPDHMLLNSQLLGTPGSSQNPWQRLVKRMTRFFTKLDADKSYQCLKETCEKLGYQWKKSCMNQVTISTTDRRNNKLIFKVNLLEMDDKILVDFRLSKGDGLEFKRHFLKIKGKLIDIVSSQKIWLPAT
Experimental: Surface plasmon resonance (SPR) biosensor binding studies were conducted using a Biacore 3000 instrument (GE Healtchare).

[2] = biological target: T1, Serine/threonine-protein kinase Chk1; assay: CHK1 Inhibition Assay; details: pH 7.4; 22 °C
Text: The inhibitors reported in this study bind to CHK1 according to a general mechanism illustrated in Scheme 1 where E, S, and I stand for enzyme, substrate and inhibitor using Caliper LC-3000 instrument (Caliper Life Science).

SMILES | pKi [1] | pKi [2]
O=C1NN=Cc2c(C(=O)N3C[C@@H](O)[C@@H](O)C3)[nH]c3cc(NC(=O)C4C[C@H]4c4ccccc4)cc1c23 (some centres undefined) [CHK1 compound 1] | 8.29 | 8.76
CC(C)(C)c1ccc(C(=O)NC(=O)Nc2cccc3ccccc23)cc1[N+](=O)O [CHK1 compound 3] | 6.54 | 6.84
